Data from patent US8389739B1, “Modulators of retinoid-related orphan receptor gamma” (Orphagen Pharmaceuticals, priority 2006, dated 2013).
Values joined by “and” are separate entries in the source; they are usually repeats but may differ in a detail not shown here. Equal values may be shown once. “Also recorded” adds a separate entry of the source. Each block holds one compound with its values, some of them ahead of it.

What was measured:
[1] = Pharmacokinetics of OR-1050 in CD-1 mice, oral gavage; format: in vivo
Procedure: FIG. 12B. Bioavailability of OR-1050. OR-1050 was dosed in CD-1 mice at […] in HRC-6, a proprietary formulation that is commercially available from Pharmatek (San Diego, Calif.). Blood samples from triplicate animals were tested for levels of OR-1050 at multiple time points.
Pharmacokinetics of OR-1050 in CD-1 mice was analyzed at independent bioanalytical laboratory. Male CD-1 mice were treated via oral gavage with OR-1050 at 5 mg/kg in HRC-6. Blood was collected via retro-orbital puncture in tubes containing sodium heparin anticoagulant at 0, 5, 15, and 30 min, and at 1, 2, 4, 6, 8 and 24 hr after oral administration. The concentration of OR-1050 in plasma was determined using an HPLC/MS/MS method.

[2] = test system: liver triglyceridemia; details: mice lacking the LXRα and LXRβ receptors; cited from earlier work
[3] = test system: IL-17 release from CD4+ naïve murine T cells; test: IL-17 release into culture medium during TH-17 differentiation (ELISA); format: cell-based, mouse; details: 3 μM, in the presence or absence of 3 μM OR-12872, day 4 (FIG. 10)
Procedure: FIG. 10. IL-17 release into culture medium was measured four days after induction of TH-17 differentiation in CD4^+ naïve murine T cells, following the methods of FIG. 7. Each antagonist (OR-885, OR-1050, OR-13571, and OR-2161) was incubated in the cultures at 3 μM, in the presence or absence of OR-12872, also at 3 μM. On day 4, culture supernatants were saved and IL-17 measured by ELISA.
Purified CD4^+CD62L^+ T cells were plated in 24-well plates with 2−4×10^5 cells in 700 ul volume of RPMI 1640 media containing 10% heat-inactivated FCS, 100 IU penicillin, 100 μg/ml streptomycin, 1× non-essential amino acids, 1 mM pyruvate, 2 mM glutamine, and 50 μM […] (Veldhoen, Hocking et al. 2006). T cells were stimulated with exogenous cytokines and anti-CD3/anti-CD28 conjugated Dynabeads (Dynal Biotech, Oslo) at a 1:1 ratio of beads to cells. Exogenous cytokines used were: 4 ng/ml TGF-β, 20 ng/ml of IL-6, or 10 ng/ml IL-12. RORγ agonist and antagonist ligands, dissolved in DMSO, were added directly to cell cultures, to a final concentration of 0.01%. Cytokines and RORγ ligands were added immediately after cell plating.
ELISA kits for mouse IL-17 and human IL-17 were from eBioscience (San Diego, Calif.). ELISA assays were performed following the manufacturer's protocol. Certain samples were diluted 20-fold to avoid maximization of enzymatic signals. […]

[4] = test system: IL-17 release in lymph node cultures; test: Lymph node cell cultures from MOG35-55 immunized C57BL/6 mice, IL-17 ELISA; format: cell-based; details: Mus musculus, 72 h; MOG and IL-23, 3 days, dose-response (FIG. 13F); read-out: EC50 for inhibition of IL-17 production
Procedure: FIGS. 13A-F. IL-17 levels in lymph node cells from mice immunized with myelin-derived peptides respond to cognate peptide antigens, IL-23 and RORγ ligands. (FIG. 13A) SJL/J mice were immunized by complete Freund's adjuvant (CFA) only or by Proteolipid Protein residues 139-151 (PLP139-151) emulsified in CFA. Lymph nodes were cultured for 3 days in with or without 40 μg/ml PLP in the presence or absence of OR-885. Culture media were analyzed by ELISA for IL-17. (FIGS. 13B-C) Lymph node cells from PLP-immunized SJL/J mice were cultured as before with the addition of 10 ng/ml IL-23 and 3 μM compounds. At the end of 1 day or 3 days in culture, Th-17 (CD4^+CD8^−IL17^+) cell frequency was measured by FACS (FIG. 13B) and compared to IL-17 levels in culture media (FIG. 13C). (FIGS. 13D-F) Lymph node cells from MOG35-55 immunized C57BL/6 mice were cultured for 3 days with 30 μg/ml MOG and/or 10 ng/ml IL-23. RORγ ligands were not added (FIG. 13D), or added at the beginning of the culture at a single concentration (FIG. 13E, 1 μM) or in multiple doses (FIG. 13F). […]
Overall, cultured lymph node cells that are stimulated with IL-23 and peptide antigens provide a model system to examine IL-17 production ex vivo (FIG. 13D). We analyzed a variety of RORγ ligands for their ability to regulate IL-17 (FIG. 13E). […] This potency is consistent with that measured in the CHO cell transcription assay.

blood levels suggested for a higher dosage ([1]; extrapolated to 50 mg/kg): 1 μg/ml and ~2 μM
SMILES: CCN(c1ccc(C(O)(C(F)(F)F)C(F)(F)F)cc1)S(=O)(=O)c1ccc([N+](=O)[O-])cc1 [OR-1050, N-Ethyl-4-nitro-N-[4-(2,2,2-trifluoro-1-hydroxy-1-trifluoromethyl-ethyl)-phenyl]-benzenesulfonamide]
oral bioavailability, in words ([1]; mouse, in vivo, po): modest bioavailability; also recorded: orally-bioavailable; also recorded: orally bioavailable

SMILES: O=S(=O)(c1ccccc1)N(CC(F)(F)F)c1ccc(C(O)(C(F)(F)F)C(F)(F)F)cc1 [Compound T0901317, N-(2,2,2-Trifluoro-ethyl)-N-[4-(2,2,2-trifluoro-1-hydroxy-1-trifluoromethyl-ethyl)-phenyl]-benzenesulfonamide, reference compound]
liver triglyceridemia [2]: no effect on liver triglyceridemia

SMILES: COC(C)CCC(C)C1CCC2C3CC(O)C4CC(O)CCC4(C)C3CCC12C (centres unmarked) [OR-12872, 17-(4-Methoxy-1-methyl-pentyl)-10,13-dimethyl-hexadecahydro-cyclopenta[a]phenanthrene-3,6-diol]
IL-17 release during TH-17 differentiation [3]: reverses the effect of each of the antagonists

SMILES: C[C@@H]1CC[C@@]2(OC1)O[C@H]1C[C@H]3[C@@H]4CC[C@H]5C[C@@H](O)CC[C@]5(C)[C@H]4C[C@@H](O)[C@]3(C)[C@H]1[C@@H]2C [OR-885, 5α,20α, 22α, 25D-SPIROSTAN-3β, 12β-DIOL]
EC50 [4]: ~0.2 µM
